Test [1] deals with T1, Adenosine receptor A2b (Homo sapiens, UniProt P29275).
T1 sequence (P29275 whole entry): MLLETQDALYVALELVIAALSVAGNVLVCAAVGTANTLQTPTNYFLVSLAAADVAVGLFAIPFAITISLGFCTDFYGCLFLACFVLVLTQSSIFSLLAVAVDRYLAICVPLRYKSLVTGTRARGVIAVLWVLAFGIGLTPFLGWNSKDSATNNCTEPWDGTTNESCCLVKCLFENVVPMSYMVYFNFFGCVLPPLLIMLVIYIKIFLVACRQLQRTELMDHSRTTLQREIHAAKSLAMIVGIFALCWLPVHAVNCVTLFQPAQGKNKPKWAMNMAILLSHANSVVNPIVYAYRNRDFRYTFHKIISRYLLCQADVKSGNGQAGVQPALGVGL
Description: Antagonist activity at adenosine A2B receptor (unknown origin).

Test [2] has as its target 5-hydroxytryptamine receptor 4 (Homo sapiens, UniProt Q13639). Description: Antagonist activity at […] receptor (unknown origin).
For test [3], the target named is Coagulation factor X (Homo sapiens, UniProt P00742). The test is described as follows: Inhibition of factor-10a (unknown origin).
Sequence of Coagulation factor X (P00742 41-179 limits assumed): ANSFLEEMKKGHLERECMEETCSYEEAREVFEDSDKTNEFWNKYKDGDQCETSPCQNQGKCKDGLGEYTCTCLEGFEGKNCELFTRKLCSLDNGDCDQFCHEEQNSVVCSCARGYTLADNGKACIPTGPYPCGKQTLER
Sequence of Coagulation factor X (P00742 235-488 limits assumed): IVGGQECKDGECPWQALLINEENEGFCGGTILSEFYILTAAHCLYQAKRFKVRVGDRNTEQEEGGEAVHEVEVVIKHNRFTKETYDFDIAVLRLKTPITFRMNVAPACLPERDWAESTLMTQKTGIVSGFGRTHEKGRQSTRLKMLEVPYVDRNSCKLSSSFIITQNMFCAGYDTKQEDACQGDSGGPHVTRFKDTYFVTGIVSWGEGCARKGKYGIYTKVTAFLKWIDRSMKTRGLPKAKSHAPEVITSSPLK
Test [4] has as its target Transient receptor potential cation channel subfamily A member 1 (Homo sapiens, UniProt O75762). The test is described as follows: Antagonist activity at TRPA1 (unknown origin).

Sequence of Transient receptor potential cation channel subfamily A member 1 (O75762 whole entry): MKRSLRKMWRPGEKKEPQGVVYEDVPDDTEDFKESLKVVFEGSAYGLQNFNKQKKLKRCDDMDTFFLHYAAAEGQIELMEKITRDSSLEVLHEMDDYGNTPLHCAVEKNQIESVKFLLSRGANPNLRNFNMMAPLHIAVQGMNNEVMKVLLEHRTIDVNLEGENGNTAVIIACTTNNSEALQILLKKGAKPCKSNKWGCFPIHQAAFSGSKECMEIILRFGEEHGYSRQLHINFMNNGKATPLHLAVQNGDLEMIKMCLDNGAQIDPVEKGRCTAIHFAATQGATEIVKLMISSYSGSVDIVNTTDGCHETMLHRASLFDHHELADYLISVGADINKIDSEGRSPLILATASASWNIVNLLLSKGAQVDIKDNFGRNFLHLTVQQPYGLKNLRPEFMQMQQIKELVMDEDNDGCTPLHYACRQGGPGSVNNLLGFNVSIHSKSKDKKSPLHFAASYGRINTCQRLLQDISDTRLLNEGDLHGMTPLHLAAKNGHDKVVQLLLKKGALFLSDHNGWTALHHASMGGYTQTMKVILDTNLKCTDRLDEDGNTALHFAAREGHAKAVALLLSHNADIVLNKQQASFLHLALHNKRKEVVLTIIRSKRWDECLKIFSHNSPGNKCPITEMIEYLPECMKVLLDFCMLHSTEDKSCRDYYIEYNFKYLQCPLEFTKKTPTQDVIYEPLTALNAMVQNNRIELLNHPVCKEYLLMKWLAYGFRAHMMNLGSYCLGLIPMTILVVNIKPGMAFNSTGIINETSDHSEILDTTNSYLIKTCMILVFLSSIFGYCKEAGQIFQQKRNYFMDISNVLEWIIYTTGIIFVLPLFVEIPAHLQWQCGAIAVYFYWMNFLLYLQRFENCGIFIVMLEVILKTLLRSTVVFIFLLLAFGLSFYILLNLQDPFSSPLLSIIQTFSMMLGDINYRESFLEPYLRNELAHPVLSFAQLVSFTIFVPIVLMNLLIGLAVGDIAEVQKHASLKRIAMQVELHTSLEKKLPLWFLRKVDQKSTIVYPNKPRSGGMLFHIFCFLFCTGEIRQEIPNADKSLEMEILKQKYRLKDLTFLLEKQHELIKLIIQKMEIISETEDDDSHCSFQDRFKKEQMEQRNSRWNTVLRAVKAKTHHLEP
Sequence of 5-hydroxytryptamine receptor 4 (Q13639 whole entry): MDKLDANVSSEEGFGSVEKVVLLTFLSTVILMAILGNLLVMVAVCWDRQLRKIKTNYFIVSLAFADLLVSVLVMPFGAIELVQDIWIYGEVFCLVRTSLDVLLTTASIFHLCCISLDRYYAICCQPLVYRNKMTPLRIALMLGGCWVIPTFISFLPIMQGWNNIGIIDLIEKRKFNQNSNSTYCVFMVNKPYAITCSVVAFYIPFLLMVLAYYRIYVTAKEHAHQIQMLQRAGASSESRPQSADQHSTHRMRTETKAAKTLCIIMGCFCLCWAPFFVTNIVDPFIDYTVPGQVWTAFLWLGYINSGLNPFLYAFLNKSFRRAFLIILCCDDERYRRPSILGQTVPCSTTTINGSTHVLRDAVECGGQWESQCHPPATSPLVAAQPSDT

As for `COc1cc(N)c(Cl)cc1C(=O)OCCN1CCN(c2ccccc2OC)CC1`, the IC50 in test [1] came out at 127 nM; in test [2], 64 nM.

On to `COc1cc(N)c(Cl)cc1C(=O)OCCN1CCN(c2ccc(Cl)cc2)CC1`, for which the IC50 in test [1] was determined as 3660 nM; in test [2], 715 nM.

As for `COc1cc(N)c(Cl)cc1C(=O)OCCN1CCN(c2ccccc2Cl)CC1`, the IC50 in test [1] was 5830 nM; in test [2], 296 nM.

`COc1cc(N)c(Cl)cc1C(=O)OCCN1CCN(c2cccc(Cl)c2)CC1`: the values for the IC50 in test [1] and in test [2] were 2080 nM and 162 nM, respectively.

For `Cc1cc(C(=O)Nc2ccc(-c3ccccc3C(F)(F)F)cc2)n(-c2cccc(C(=N)N)c2)n1`, the IC50 in test [3] was found to be 0.04 nM.

In the case of `COc1cc(N)c(Cl)cc1C(=O)OCCN1CCN(c2ccccc2-c2cnccn2)CC1`, in test [2], half-maximal inhibition (IC50) required 1.4 nM.

`Cc1c(=O)n(Cc2ccccc2)c(=O)n2cc(C(=O)NCc3ccc4[nH]ccc4c3)sc12` had an IC50 in test [4] of 680 nM.

For `Cc1c(=O)n(Cc2ccccc2)c(=O)n2cc(C(=O)NCc3ccncc3)sc12`, in test [4], the IC50 was 1170 nM.

`Cc1ccc(CNC(=O)c2cn3c(=O)n(Cc4ccccc4)c(=O)c(C)c3s2)cc1`: half-maximal inhibition in test [4] (IC50) required 1370 nM.

For the compound `Cc1c(=O)n(Cc2ccccc2)c(=O)n2cc(C(=O)NCc3ccc4nsnc4c3)sc12`, in test [4], the midpoint of inhibition, the IC50, lay at 1460 nM.

The compound `Cc1c(=O)n(Cc2ccccc2)c(=O)n2cc(C(=O)NCc3cccnc3)sc12` gave an IC50 in test [4] of 1570 nM.

On to `COc1cc(CNC(=O)c2cn3c(=O)n(Cc4ccccc4)c(=O)c(C)c3s2)ccn1`, for which the IC50 in test [4] was 1740 nM.

`Cc1c(=O)n(Cc2ccccc2)c(=O)n2cc(C(=O)NCc3ccccc3)sc12` showed an IC50 in test [4] of 1880 nM.

In turn, `Cc1c(=O)n(Cc2ccccc2)c(=O)n2cc(C(=O)NCc3ccc(F)cc3)sc12` displayed an IC50 in test [4] of 2230 nM.

For `Cc1c(=O)n(Cc2ccccc2)c(=O)n2cc(C(=O)NCc3ccc(Cl)cc3)sc12`, inhibition in test [4] was half-maximal at 2230 nM (IC50).

Consider `Cc1c(=O)n(Cc2ccccc2)c(=O)n2cc(C(=O)NCc3ccccn3)sc12`, for which the midpoint of inhibition in test [4], the IC50, lay at 3490 nM.

Take `Cc1c(=O)n(Cc2ccccc2)c(=O)n2cc(C(=O)N3CC[C@@H](Oc4ccccc4C(F)(F)F)C3)sc12`: the 50% inhibitory concentration (IC50) in test [4] is 100 nM.

Regarding `Cc1c(=O)n(Cc2ccccc2)c(=O)n2cc(C(=O)N3CC[C@H](Oc4ccccc4C(F)(F)F)C3)sc12`, the IC50 in test [4] was 150 nM.

In test [4], `Cc1c(=O)n(Cc2ccccc2)c(=O)n2cc(C(=O)N3CCC(Oc4ccccc4F)CC3)sc12` gave an IC50 of 200 nM.

`Cc1c(=O)n(Cc2ccccc2)c(=O)n2cc(C(=O)N3CCC(Oc4cccc(Cl)c4)CC3)sc12` yielded an IC50 in test [4] of 200 nM.

Regarding `Cc1c(=O)n(Cc2ccccc2)c(=O)n2cc(C(=O)N3CCC(c4ccccc4F)CC3)sc12`, half-maximal inhibition in test [4] (IC50) was put at 400 nM.

In the case of `COc1cccc(N2CCN(CCOC(=O)c3cc(Cl)c(N)cc3OC)CC2)c1`, the IC50 came to 50 nM in test [1] and 3 nM in test [2].

In the case of `COc1ccc(N2CCN(CCOC(=O)c3cc(Cl)c(N)cc3OC)CC2)cc1`, the IC50 in test [1] turned out to be 250 nM; in test [2], 18 nM.

Consider `COc1cc(N)c(Cl)cc1C(=O)OCCN1CCN(c2ccccc2F)CC1`, for which the IC50 in test [1] was 645 nM; in test [2], 17 nM.

Take `Cc1cc(C(=O)Nc2ccc(-c3ccccc3S(C)(=O)=O)cc2)n(-c2cccc(C(=N)N)c2)n1`: the IC50 in test [3] is 0.008 nM.

As a reminder, the IC50 is the concentration at which inhibition is half-maximal.

For the origin of these results see ChEMBL document CHEMBL3217709, “SAR mining and its application to the design of TRPA1 antagonists” (Medchemcomm, 2012).
